Earlier results as cited in patent publication US20020032245A1, “Resinate composition” (priority 2000, published 2002).

Structure (SMILES): COc1ccc2c(c1)c(CC(=O)O)c(C)n2C(=O)c1ccc(Cl)cc1 [indomethacin]
- solubility of indomethacin in water: 14 ppm
